The text below walks through data of patent US10188636B2 (Cipla (UK) Limited, priority 2015, dated 2019).

Test [1] concerns primary rat mixed cortical cultures. The test can be described thus: Aβ1-42-induced cell death (LDH release) in primary mixed cortical cultures. It counts as cell-based. The note with it: 37° C., 5% CO2, 72 hours, varied concentrations, FIG. 1. How it is done:
Mixed cortical cultures are prepared from E18 Wistar rat embryos. The cortices are dissected out and tissue cut into small pieces. The cells are separated by 15-min incubation with DNase and papain. The cells are collected by centrifugation (1500 rpm, 5 min). […] After 3-4 h, the medium is changed to MEM (2 g/L glucose) supplemented with 2 mM glutamine, 10 μg/mL gentamicin, 5% HS-HI. After three days in vitro, medium containing MEM (Minimum Essential Media) (2 g/L glucose) supplemented with glutamine, gentamicin and 5% […] is changed to the cells. On day 6 in vitro, the unwanted cell division is inhibited by adding cytosine arabinoside (10 μM final concentration) for 24 h. The cultures refed with MEM (2 g/L glucose) supplemented with glutamine, gentamicin and 5% HS-HI before experiments. Aß1-42 Exposure The wells in good shape are chosen for experiment on day 10 in vitro. Test compounds are diluted in MEM (2 g/L glucose) supplemented with L-glutamine, gentamicin, and 5% HS-HI. […] The absorbance at 340 nm is measured immediately using a 3-min kinetic measurement protocol in Multiskan FC ELISA reader (Thermo, Finland). The change in absorbance/min is determined, which is directly proportional to the released LDH (=cell death).
(LDH leaks from cells whose membrane has failed.)

Test [2] concerns GFAP. In words: GFAP immunohistochemistry in icv streptozotocin-induced Alzheimer's disease model. The class given is in vivo. The following applies: icv-STZ mice, oral once daily day 0 to day 14; betahistine 30 and 100 mg/kg, donepezil 0.5 mg/kg; compared with Vehicle group; FIG. 3. Here is the method:
(§1) Seven-week-old male C57BL/6 mice were obtained from Japan SLC, (Japan). The animals were maintained in a SPF facility under controlled conditions of temperature (23±2° C.), humidity (45±10%), lighting (12-hour artificial light and dark cycles; light from 8:00 to 20:00) and air exchange. On day 0 and day 2, 60 mice were anesthetized with pentobarbital sodium (Kyoritsu Seiyalu, Japan) and intracerebroventricularly (icy) administered two doses of streptozotocin (STZ, Sigma-Aldrich, USA) in saline at a dose of 3 mg/kg. The icv-STZ-induced Alzheimer's disease model mice were divided into 6 groups of 10 mice based on their body weight on the day before the start of the treatment.

Test [3] concerns the target histamine H3 receptors (Homo sapiens, UniProt Q9Y5N1). The note with it: general statement in description; cited from earlier work.
The subject of test [4] is MAP2. In words: MAP2 mRNA expression by quantitative RT-PCR in icv streptozotocin-induced Alzheimer's disease model. It counts as in vivo, mice. The following applies: for Expression levels of MAP2 gene (Mean ± SD): relative mRNA normalized to GAPDH, Vehicle 1.0 ± 0.4. How it is done: as §1
Expression levels of MAP2, a cytoskeletal modulator that has been implicated in the pathogenesis of Alzheimer's disease and a member of MAP2/tau family, was measured by quantitative RT-PCR. Total RNA was extracted from brain samples using RNAiso (Takara Bio, Japan) according to the manufacturer's instructions. One μg of RNA was reverse-transcribed using a reaction mixture containing 4.4 mM MgCl2 (F. Hoffmann-La Roche, Switzerland), 40 U RNase inhibitor (Toyobo, Japan), 0.5 mM dNTP (Promega, USA), 6.28 μM random hexamer (Promega), 5× first strand buffer (Promega), 10 mM dithiothreitol (Invitrogen, USA) and 200 U MMLV-RT (Invitrogen) in a final volume of 20 μL. The reaction was carried out for 1 hour at 37° C., followed by 5 minutes at 99° C. Real-time PCR was performed using real-time PCR DICE and SYBR premix Taq (Takara Bio). To calculate the relative mRNA expression level, the expression of each gene was normalized to that of reference gene GAPDH.

In test [5] the test system is APPSwDI/NOS2−/− mice. In words: Contextual Fear Conditioning test in APPSwDI/NOS2−/− transgenic mice. The following applies: once-a-day p.o., after two months of treatment, vs vehicle, FIG. 2. It counts as in vivo. How it is done:
-/- are double transgenic mice which display […] spatial memory, neuronal loss and neurofibrillary tangle like pathology. […] Treatment was continued for 2.5 months. After two months of treatment, starting at the age of 14.5 months the mice were subjected to Contextual Fear Conditioning (CFC) test. The test was performed as follows Training consisted of placing a mouse in a chamber, bright house light on, and allowing exploration for 2 min. Afterward an auditory cue (1700 Hz, 80 dB, conditioned stimulus (CS)) was presented for 15 s. A 2 s foot shock (1.5 mA; unconditioned stimulus (US)) was administered for the final 2 s of the CS. This procedure was repeated, and the mouse was removed from the chamber 30 s later. Twenty hours (±30 min) after the training, the mouse was returned to the same chamber in which the training occurred (memory for context), and freezing behavior was recorded by a computerized camera tracking system. The automated Freeze Frame system, which digitized the video signal at 4 Hz and compared movement of the mouse frame by frame, was used to score the amount of freezing. At the end of the 5 min context test, the mouse was returned to its home cage. Freezing scores for each subject were expressed as a percentage for memory for context.

Chain of histamine H3 receptors (Q9Y5N1 whole entry): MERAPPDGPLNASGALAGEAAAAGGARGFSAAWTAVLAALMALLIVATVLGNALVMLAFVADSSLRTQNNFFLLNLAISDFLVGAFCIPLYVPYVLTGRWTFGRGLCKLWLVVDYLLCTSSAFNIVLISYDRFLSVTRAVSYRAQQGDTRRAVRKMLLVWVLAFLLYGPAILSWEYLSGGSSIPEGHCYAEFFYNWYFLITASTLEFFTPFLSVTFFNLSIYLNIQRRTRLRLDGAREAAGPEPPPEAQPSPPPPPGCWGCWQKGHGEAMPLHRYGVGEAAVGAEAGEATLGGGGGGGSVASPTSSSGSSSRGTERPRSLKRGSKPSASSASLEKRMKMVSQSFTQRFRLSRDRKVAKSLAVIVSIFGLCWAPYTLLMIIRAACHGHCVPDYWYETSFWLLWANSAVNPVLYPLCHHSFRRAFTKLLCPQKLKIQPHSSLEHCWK

Take `CNCCc1ccccn1` [Betahistine]: the “protective effect against Aβ 1-42-induced cell death” value in test [1] is “profound protective effect”. Moreover, in test [2], the GFAP-positive area result is listed as “significant decreases”. Also, in test [3], the “affinity as an antagonist for histamine H3 receptors” value is given as “very strong affinity”. The “Expression levels of MAP2 gene (Mean ± SD)” value in test [4] (Betahistine high dose (100 mg/kg p.o. once daily day 0-14), n = 10) stood at 0.7 ± 0.2; in test [4] (Betahistine low dose (30 mg/kg p.o. once daily day 0-14), n = 10), 0.7 ± 0.2. Further, the “MAP2 mRNA expression (in words)” value in test [4] (icv-STZ mice brain, oral once daily day 0 to day 14, normalized to GAPDH) is on record as “significant down regulation”. The “Freezing score (memory for context)” value in test [5] is listed as “improved freezing score”.

For the compound `COc1cc2c(cc1OC)C(=O)C(CC1CCN(Cc3ccccc3)CC1)C2` (stereo not drawn) [Donepezil, donepezil], the GFAP-positive area entry in test [2] is on record as “significant decreases”. Further, the “Expression levels of MAP2 gene (Mean ± SD)” value in test [4] (Donepezil 0.5 mg/kg p.o. once daily day 0-14, n = 10) is 0.7 ± 0.2.
